Measurements: ChEMBL document CHEMBL1131684, “Preparation of amino acid conjugates of betulinic acid with activity against human melanoma” (Bioorg Med Chem Lett, 1999)
≈ marks a conversion by molar mass, not a printed value.

Key:
SK-MEL-2 = test: In vitro cytotoxicity (antitumor activity) against human melanoma (MEL-2) cell lines; format: functional; conditions: read-out: ED50 (the source's name)
[1] = Water solubility of the compound; format: ADME; conditions: buffer
KB = test: In vitro cytotoxicity (antitumor activity) against human epidermoid carcinoma of mouth cell line (KB); format: functional; conditions: read-out: ED50 (the source's name)

| Structure (SMILES) | EC50 (SK-MEL-2) | S [1] | EC50 (KB) |
| --- | --- | --- | --- |
| C=C(C)[C@@H]1CC[C@]2(C(=O)O)CC[C@]3(C)[C@H](CC[C@@H]4[C@@]5(C)CC[C@H](O)C(C)(C)[C@@H]5CC[C@]43C)[C@@H]12 [BETULINIC ACID] | 4.2 µg/mL (≈ 9.2 µM) | < 5 Dilution factor | > 20 µg/mL |
| C=C(C)[C@@H]1CC[C@]2(C(=O)NCC(=O)O)CC[C@]3(C)[C@H](CC[C@@H]4[C@@]5(C)CC[C@H](O)C(C)(C)[C@@H]5CC[C@]43C)[C@@H]12 | 4.2 µg/mL (≈ 8.17 µM) | 100 Dilution factor | > 20 µg/mL |
| C=C(C)[C@@H]1CC[C@]2(C(=O)N[C@@H](Cc3ccc(O)cc3)C(=O)O)CC[C@]3(C)[C@H](CC[C@@H]4[C@@]5(C)CC[C@H](O)C(C)(C)[C@@H]5CC[C@]43C)[C@@H]12 | > 20 µg/mL | – | > 20 µg/mL |
| C=C(C)[C@@H]1CC[C@]2(C(=O)N[C@@H](C)C(=O)O)CC[C@]3(C)[C@H](CC[C@@H]4[C@@]5(C)CC[C@H](O)C(C)(C)[C@@H]5CC[C@]43C)[C@@H]12 | 1.5 µg/mL (≈ 2.84 µM) | 50 Dilution factor | 4.6 µg/mL (≈ 8.72 µM) |
| C=C(C)[C@@H]1CC[C@]2(C(=O)N[C@H](C(=O)O)[C@@H](C)CC)CC[C@]3(C)[C@H](CC[C@@H]4[C@@]5(C)CC[C@H](O)C(C)(C)[C@@H]5CC[C@]43C)[C@@H]12 | > 20 µg/mL | – | > 20 µg/mL |
| C=C(C)[C@@H]1CC[C@]2(C(=O)N[C@@H](CC(=O)OC)C(=O)OC)CC[C@]3(C)[C@H](CC[C@@H]4[C@@]5(C)CC[C@H](O)C(C)(C)[C@@H]5CC[C@]43C)[C@@H]12 | > 20 µg/mL | – | > 20 µg/mL |
| C=C(C)[C@@H]1CC[C@]2(C(=O)N[C@@H](Cc3ccc(O)cc3)C(=O)OC)CC[C@]3(C)[C@H](CC[C@@H]4[C@@]5(C)CC[C@H](O)C(C)(C)[C@@H]5CC[C@]43C)[C@@H]12 | > 20 µg/mL | – | > 20 µg/mL |
| C=C(C)[C@@H]1CC[C@]2(C(=O)N[C@@H](CCC(=O)O)C(=O)O)CC[C@]3(C)[C@H](CC[C@@H]4[C@@]5(C)CC[C@H](O)C(C)(C)[C@@H]5CC[C@]43C)[C@@H]12 | > 20 µg/mL | – | > 20 µg/mL |
| C=C(C)[C@@H]1CC[C@]2(C(=O)N[C@@H](CCSC)C(=O)O)CC[C@]3(C)[C@H](CC[C@@H]4[C@@]5(C)CC[C@H](O)C(C)(C)[C@@H]5CC[C@]43C)[C@@H]12 | 9 µg/mL (≈ 15.3 µM) | 5 Dilution factor | > 20 µg/mL |
| C=C(C)[C@@H]1CC[C@]2(C(=O)N3CCC[C@H]3C(=O)O)CC[C@]3(C)[C@H](CC[C@@H]4[C@@]5(C)CC[C@H](O)C(C)(C)[C@@H]5CC[C@]43C)[C@@H]12 | 13.1 µg/mL (≈ 23.7 µM) | 20 Dilution factor | > 20 µg/mL |
| C=C(C)[C@@H]1CC[C@]2(C(=O)N[C@@H](CCC(=O)OC)C(=O)OC)CC[C@]3(C)[C@H](CC[C@@H]4[C@@]5(C)CC[C@H](O)C(C)(C)[C@@H]5CC[C@]43C)[C@@H]12 | 15.3 µg/mL (≈ 24.9 µM) | 20 Dilution factor | > 20 µg/mL |
| C=C(C)[C@@H]1CC[C@]2(C(=O)N[C@@H](CC(C)C)C(=O)OC)CC[C@]3(C)[C@H](CC[C@@H]4[C@@]5(C)CC[C@H](O)C(C)(C)[C@@H]5CC[C@]43C)[C@@H]12 | 6.2 µg/mL (≈ 10.6 µM) | 5 Dilution factor | > 20 µg/mL |
| C=C(C)[C@@H]1CC[C@]2(C(=O)N[C@@H](Cc3ccccc3)C(=O)OC)CC[C@]3(C)[C@H](CC[C@@H]4[C@@]5(C)CC[C@H](O)C(C)(C)[C@@H]5CC[C@]43C)[C@@H]12 | 9 µg/mL (≈ 14.6 µM) | 5 Dilution factor | > 20 µg/mL |
| C=C(C)[C@@H]1CC[C@]2(C(=O)N[C@@H](C)C(=O)OC)CC[C@]3(C)[C@H](CC[C@@H]4[C@@]5(C)CC[C@H](O)C(C)(C)[C@@H]5CC[C@]43C)[C@@H]12 | 3.5 µg/mL (≈ 6.46 µM) | 30 Dilution factor | > 20 µg/mL |
| C=C(C)[C@@H]1CC[C@]2(C(=O)N[C@@H](CC(C)C)C(=O)O)CC[C@]3(C)[C@H](CC[C@@H]4[C@@]5(C)CC[C@H](O)C(C)(C)[C@@H]5CC[C@]43C)[C@@H]12 | 9 µg/mL (≈ 15.8 µM) | 10 Dilution factor | > 20 µg/mL |
| C=C(C)[C@@H]1CC[C@]2(C(=O)N[C@@H](Cc3ccccc3)C(=O)O)CC[C@]3(C)[C@H](CC[C@@H]4[C@@]5(C)CC[C@H](O)C(C)(C)[C@@H]5CC[C@]43C)[C@@H]12 | > 20 µg/mL | – | > 20 µg/mL |
| C=C(C)[C@@H]1CC[C@]2(C(=O)N[C@@H](CC(=O)O)C(=O)O)CC[C@]3(C)[C@H](CC[C@@H]4[C@@]5(C)CC[C@H](O)C(C)(C)[C@@H]5CC[C@]43C)[C@@H]12 | > 20 µg/mL | – | > 20 µg/mL |
| C=C(C)[C@@H]1CC[C@]2(C(=O)N[C@@H](CCSC)C(=O)OC)CC[C@]3(C)[C@H](CC[C@@H]4[C@@]5(C)CC[C@H](O)C(C)(C)[C@@H]5CC[C@]43C)[C@@H]12 | 12.8 µg/mL (≈ 21.3 µM) | 5 Dilution factor | > 20 µg/mL |
| C=C(C)[C@@H]1CC[C@]2(C(=O)NCC(=O)OC)CC[C@]3(C)[C@H](CC[C@@H]4[C@@]5(C)CC[C@H](O)C(C)(C)[C@@H]5CC[C@]43C)[C@@H]12 | 10.2 µg/mL (≈ 19.3 µM) | 50 Dilution factor | > 20 µg/mL |
| C=C(C)[C@@H]1CC[C@]2(C(=O)N3CCC[C@H]3C(=O)OC)CC[C@]3(C)[C@H](CC[C@@H]4[C@@]5(C)CC[C@H](O)C(C)(C)[C@@H]5CC[C@]43C)[C@@H]12 | > 20 µg/mL | – | > 20 µg/mL |
| C=C(C)[C@@H]1CC[C@]2(C(=O)N[C@H](C(=O)O)C(C)C)CC[C@]3(C)[C@H](CC[C@@H]4[C@@]5(C)CC[C@H](O)C(C)(C)[C@@H]5CC[C@]43C)[C@@H]12 | 9 µg/mL (≈ 16.2 µM) | 20 Dilution factor | 9 µg/mL (≈ 16.2 µM) |
| C=C(C)[C@@H]1CC[C@]2(C(=O)N[C@H](C(=O)OC)C(C)C)CC[C@]3(C)[C@H](CC[C@@H]4[C@@]5(C)CC[C@H](O)C(C)(C)[C@@H]5CC[C@]43C)[C@@H]12 | 2.1 µg/mL (≈ 3.69 µM) | 5 Dilution factor | > 20 µg/mL |
| C=C(C)[C@@H]1CC[C@]2(C(=O)N[C@@H](Cc3c[nH]c4ccccc34)C(=O)O)CC[C@]3(C)[C@H](CC[C@@H]4[C@@]5(C)CC[C@H](O)C(C)(C)[C@@H]5CC[C@]43C)[C@@H]12 | 8.6 µg/mL (≈ 13.4 µM) | 10 Dilution factor | > 20 µg/mL |
| C=C(C)[C@@H]1CC[C@]2(C(=O)N[C@@H](Cc3c[nH]c4ccccc34)C(=O)OC)CC[C@]3(C)[C@H](CC[C@@H]4[C@@]5(C)CC[C@H](O)C(C)(C)[C@@H]5CC[C@]43C)[C@@H]12 | > 20 µg/mL | – | > 20 µg/mL |
| C=C(C)[C@@H]1CC[C@]2(C(=O)N[C@H](C(=O)OC)[C@@H](C)CC)CC[C@]3(C)[C@H](CC[C@@H]4[C@@]5(C)CC[C@H](O)C(C)(C)[C@@H]5CC[C@]43C)[C@@H]12 | > 20 µg/mL | – | > 20 µg/mL |
